In patent publication US7652022B2, “Diaryl urea derivatives useful for the treatment of protein kinase dependent diseases” (Novartis AG, priority 2002, dated 2010):

Legend:
[1] = biological target: T1, c-Abl kinase (His-tagged kinase domain of c-Abl) (Homo sapiens, UniProt P00519); test: c-Abl protein-tyrosine kinase in vitro enzyme filter binding assay; assay type: biochemical; details: % inhibition at 10 μM
T1 construct: The His-tagged kinase domain of c-Abl is cloned and expressed in the baculovirus/Sf9 system; His tag; made in house; host or cells: Sf9 insect cells (baculovirus)
T1 sequence (P00519 242-493 limits assumed): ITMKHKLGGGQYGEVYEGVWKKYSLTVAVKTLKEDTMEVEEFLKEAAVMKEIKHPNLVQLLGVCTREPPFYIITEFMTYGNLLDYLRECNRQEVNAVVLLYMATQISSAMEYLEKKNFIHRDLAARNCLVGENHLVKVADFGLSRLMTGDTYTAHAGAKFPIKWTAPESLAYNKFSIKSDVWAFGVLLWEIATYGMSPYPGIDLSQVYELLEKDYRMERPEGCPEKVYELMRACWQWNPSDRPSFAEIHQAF
Experimental: An in vitro enzyme assay is performed in 96-well plates as a filter binding assay as described by Geissler et al. in Cancer Res. 1992; 52:4492-4498, with the following modifications. The His-tagged kinase domain of c-Abl is cloned and expressed in the baculovirus/Sf9 system as described by Bhat et al. in J. Biol. Chem. 1997; 272:16170-16175. A protein of 37 kD (c-Abl kinase) is purified by a two-step procedure over a Cobalt metal chelate column followed by an anion exchange column with a yield of 1-2 mg/L of Sf9 cells (Bhat et al., reference cited). The purity of the c-Abl kinase is >90% as judged by SDS-PAGE after Coomassie blue staining. The assay contains (total volume of 30 μL): c-Abl kinase (50 ng), 20 mM Tris·HCl, pH 7.5, 10 mM MgCl2, 10 μM Na3VO4, 1 mM DTT and 0.06 μCi/assay [γ^33 P]-ATP (5 μM ATP) using 30 μg/mL poly-Ala,Glu,Lys,Tyr-6:2:5:1 (Poly-AEKY, Sigma P1152) in the presence of 1% DMSO. Reactions are terminated by adding 10 μL of 250 mM EDTA and 30 μL of the reaction mixture is transferred onto Immobilon-PVDF membrane (Millipore, Bedford, Mass., USA) previously soaked for 5 min with methanol, rinsed with water, then soaked for 5 min with 0.5% H3PO4 and mounted on vacuum manifold with disconnected vacuum source. After spotting all samples, vacuum is connected and each well rinsed with 200 μL 0.5% H3PO4. Membranes are removed and washed on a shaker with 0.5% H3PO4 (4 times) and once with ethanol. Membranes are counted after drying at ambient temperature, mounting in Packard TopCount 96-well frame, and addition of 10 μL/well of Microscint™ (Packard).
Enzymatic (c-Abl, KDR, Flt3) data are given on Table 17 (% inhibition at 10 μM). (Measurements are made as described above in the general description).

[2] = biological target: T2, human VEGF-R2 receptor (KDR) (Homo sapiens, UniProt P35968); test: Inhibition of VEGF-induced VEGF-R2 (KDR) autophosphorylation in transfected CHO cells, sandwich ELISA; assay type: cell-based; details: % inhibition at 10 μM
T2 construct: expressed in transfected cells
T2 sequence (P35968 20-1356): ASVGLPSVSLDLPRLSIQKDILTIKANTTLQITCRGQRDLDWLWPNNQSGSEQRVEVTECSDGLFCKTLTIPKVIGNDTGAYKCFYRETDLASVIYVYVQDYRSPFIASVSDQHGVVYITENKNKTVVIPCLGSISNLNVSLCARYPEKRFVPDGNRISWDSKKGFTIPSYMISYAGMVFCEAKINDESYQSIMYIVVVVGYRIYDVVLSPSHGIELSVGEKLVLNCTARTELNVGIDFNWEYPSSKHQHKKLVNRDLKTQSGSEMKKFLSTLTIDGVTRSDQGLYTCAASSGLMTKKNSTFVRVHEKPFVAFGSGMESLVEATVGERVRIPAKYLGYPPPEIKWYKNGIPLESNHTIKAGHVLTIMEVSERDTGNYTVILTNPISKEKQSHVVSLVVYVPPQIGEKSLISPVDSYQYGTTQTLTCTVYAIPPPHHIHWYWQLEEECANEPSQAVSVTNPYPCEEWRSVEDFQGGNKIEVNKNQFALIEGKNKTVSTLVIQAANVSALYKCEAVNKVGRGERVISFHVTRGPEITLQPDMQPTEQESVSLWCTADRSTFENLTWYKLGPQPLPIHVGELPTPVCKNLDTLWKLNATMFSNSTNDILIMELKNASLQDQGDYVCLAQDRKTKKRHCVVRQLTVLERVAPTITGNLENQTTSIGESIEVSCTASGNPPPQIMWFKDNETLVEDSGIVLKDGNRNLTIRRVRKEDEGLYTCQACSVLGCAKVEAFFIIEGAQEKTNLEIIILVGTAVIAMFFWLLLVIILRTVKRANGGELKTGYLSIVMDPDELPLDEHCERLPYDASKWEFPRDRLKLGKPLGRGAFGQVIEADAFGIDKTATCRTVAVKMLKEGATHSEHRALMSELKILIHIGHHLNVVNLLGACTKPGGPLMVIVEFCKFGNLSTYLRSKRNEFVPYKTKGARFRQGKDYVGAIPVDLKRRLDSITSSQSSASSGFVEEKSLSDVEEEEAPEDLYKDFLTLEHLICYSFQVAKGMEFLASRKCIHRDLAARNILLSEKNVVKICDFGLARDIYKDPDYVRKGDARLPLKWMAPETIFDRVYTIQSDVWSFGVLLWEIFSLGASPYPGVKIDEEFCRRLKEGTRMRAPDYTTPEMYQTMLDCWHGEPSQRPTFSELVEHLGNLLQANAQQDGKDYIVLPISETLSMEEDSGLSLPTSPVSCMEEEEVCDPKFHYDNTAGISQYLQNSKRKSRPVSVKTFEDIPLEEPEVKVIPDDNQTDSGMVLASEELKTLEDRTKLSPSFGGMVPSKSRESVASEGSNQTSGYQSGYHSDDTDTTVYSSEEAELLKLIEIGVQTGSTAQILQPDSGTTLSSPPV
Experimental: The inhibition of VEGF-induced receptor autophosphorylation can be confirmed with a further in vitro experiments in cells such as transfected CHO cells, which permanently express human VEGF-R2 receptor (KDR), are seeded in complete culture medium (with 10% fetal calf serum=FCS) in 6-well cell-culture plates and incubated at 37° C. under 5% CO2 until they show about 80% confluency. The compounds to be tested are then diluted in culture medium (without FCS, with 0.1% bovine serum albumin) and added to the cells. (Controls comprise medium without test compounds). After two hours of incubation at 37° C., recombinant VEGF is added; the final VEGF concentration is 20 ng/ml. After a further five minutes incubation at 37° C., the cells are washed twice with ice-cold PBS (phosphate-buffered saline) and immediately lysed in 100 μl lysis buffer per well. The lysates are then centrifuged to remove the cell nuclei, and the protein concentrations of the supernatants are determined using a commercial protein assay (BIORAD). The lysates can then either be immediately used or, if necessary, stored at −20° C.
The plates are then washed and the remaining free protein-binding sites are saturated with 3% TopBlock® (Juro, Cat. # TB232010) in phosphate buffered saline with Tween 20® (polyoxyethylen(20)sorbitane monolaurate, ICI/Uniquema) (PBST). The cell lysates (20 μg protein per well) are then incubated in these plates overnight at 4° C. together with an antiphosphotyrosine antibody coupled with alkaline phosphatase (PY20:AP from Zymed). […] The luminescence is measured in a Packard Top Count Microplate Scintillation Counter. The difference between the signal of the positive control (stimulated with VEGF) and that of the negative control (not stimulated with VEGF) corresponds to VEGF-induced VEGF-R2 phosphorylation (=100%). The activity of the tested substances is calculated as percent inhibition of VEGF-induced VEGF-R2 phosphorylation, wherein the concentration of substance that induces half the maximum inhibition is defined as the IC50 (inhibitory dose for 50% inhibition). […]

Row | c-Abl (% at 10 μM) [1] [%] | melting point | KDR trans (% at 10 μM) [2] [%] | Structure (SMILES)
1 |  | 217 to 219 °C |  | Cc1ccc(NC(=O)Nc2ccc(Oc3cc(Cl)ncn3)cc2)cc1 [Example 97, 1-[4-(6-Chloro-pyrimidin-4-yloxy)-phenyl]-3-p-tolyl-urea]
2 |  | 160 to 162 °C |  | CCc1cc(Oc2ccc(NC(=O)Nc3ccc(C)cc3)cc2)ncn1 [Example 99, 1-[4-(6-Ethyl-pyrimidin-4-yloxy)phenyl]-3-p-tolyl-urea]
3 |  | 168 to 169 °C |  | CCN1CCN(Cc2cc(NC(=O)Nc3ccc(Oc4cc(Cl)ncn4)cc3)cc(C(F)(F)F)c2)CC1 [Example 134, N-(4-(6-Chloropyrimidin-4-yl-oxy)-phenyl)-N′-{5-trifluoromethyl-3-[(4-ethylpiperazin-1-ylmethyl)]-phenyl}-urea]
4 |  | 154 °C |  | CN(C)Cc1cc(NC(=O)Nc2ccc(Oc3cc(Cl)ncn3)cc2)cc(C(F)(F)F)c1 [Example 135, N-(4-(6-Chloropyrimidin-4-yl-oxy)-phenyl)-N′-[5-trifluoromethyl-3-(dimethylamino-methyl)-phenyl]-urea]
5 |  | 181 °C |  | O=C(Nc1cccc(C(F)(F)F)c1)N1CCc2cc(Oc3cc(Cl)ncn3)ccc21 [Example 163, 5-(6-Chloro-pyrimidin-4-yloxy)-2,3-dihydro-indole-1-carboxylic acid (3-trifluoromethyl-phenyl)-amide]

More lines, now with the values behind:

Row | Structure (SMILES) | c-Abl (% at 10 μM) [1] [%] | melting point | KDR trans (% at 10 μM) [2] [%]
6 | CCc1ccc(NC(=O)Nc2ccc(Oc3ccncc3)cc2)cc1 [Example 1, N-(4-pyridin-4-yl-oxy-phenyl)-N′-(4-ethyl-phenyl)-urea] | 62 | 166.5 to 168 °C | 100
7 | O=C(Nc1ccc(Oc2ccncc2)cc1)Nc1cccc(C(F)(F)F)c1 [Example 2] | 84 |  | 99
8 | CCCc1ccc(NC(=O)Nc2ccc(Oc3ccncc3)cc2)cc1 [Example 3] | 58 |  | 25
9 | O=C(Nc1ccc(Oc2cc(Nc3ccc(O)cc3)ncn2)cc1)Nc1cccc(C(F)(F)F)c1 [Example 22, N-(4-(4-(4-hydroxyphenylamino)-pyrimidin-6-yl)-oxyphenyl)-N′-(3-trifluoromethylphenyl)-urea] |  | 142 °C (dec.) | 
10 | COc1cc(NC(=O)Nc2ccc(Oc3ccncc3)cc2)cc(C(F)(F)F)c1 [Example 37, 1-(3-Methoxy-5-trifluoromethyl-phenyl)-3-[4-(pyridin-4-yloxy)-phenyl]-urea] |  | 162.5 to 164.5 °C | 
11 | CCN(CC)c1ccc(NC(=O)Nc2ccc(Oc3ccncc3)cc2)cc1C(F)(F)F [Example 39] |  | 60 °C (dec.) | 
12 | Cc1ccc(NC(=O)Nc2ccc(Oc3ccncc3)cc2)cc1C(F)(F)F [Example 43, 1-(4-Methyl-3-trifluoromethyl-phenyl)-3-[4-(pyridin-4-yloxy)-phenyl]-urea] |  | 149 °C (dec.) | 
13 | CNc1cc(Oc2ccc(NC(=O)Nc3ccc(C)c(C(F)(F)F)c3)cc2)ncn1 [Example 67] |  | 202 to 203 °C (dec.) | 
14 | Cc1ccc(NC(=O)Nc2ccc(Oc3cc(Cl)ncn3)cc2)cc1C(F)(F)F [Example 76, 1-[4-(6-Chloro-pyrimidin-4-yloxy)-phenyl]-3-(4-methyl-3-trifluoromethyl-phenyl)-urea] |  | 183 to 184.5 °C | 
